Measured values from US12528777B2, “Quinazolinones derivatives for treatment of non-alcoholic fatty liver disease, preparation and use thereof” (Council of Scientific and Industrial Research, priority 2020, dated 2026).
“Also recorded” adds a separate entry of the source.

What was measured:
Type in all cases: cell-based
ATGL [1] = assay: Reversal of ATGL decrease in COP1 overexpressing HepG2 cells; conditions: myc-DDK-COP1, 5 μM, 24 hours
Procedure: COP1 is an E3 ubiquitin ligase with ATGL as one of its targets for ubiquitination and subsequent proteasomal degradation by 26S proteasome. Therefore, it is only legit for ATGL levels to decrease upon COP1 overexpression. To this end, HepG2 cells were transfected with 500 ng of myc-DDK-COP1 plasmid using Lipofectamine 2000 and treated with 5 μM of the compounds 9 and 10 for 24 hours. 48 hours post transfection, cells were harvested and western blot was carried out.

COP1 = COP1 (Homo sapiens, UniProt Q8NHY2); assay: Immunoprecipitation assay of COP1 autoubiquitination in HepG2 cells; conditions: 5 μM, 24 hours, MG-132
COP1, sequence (Q8NHY2 whole entry): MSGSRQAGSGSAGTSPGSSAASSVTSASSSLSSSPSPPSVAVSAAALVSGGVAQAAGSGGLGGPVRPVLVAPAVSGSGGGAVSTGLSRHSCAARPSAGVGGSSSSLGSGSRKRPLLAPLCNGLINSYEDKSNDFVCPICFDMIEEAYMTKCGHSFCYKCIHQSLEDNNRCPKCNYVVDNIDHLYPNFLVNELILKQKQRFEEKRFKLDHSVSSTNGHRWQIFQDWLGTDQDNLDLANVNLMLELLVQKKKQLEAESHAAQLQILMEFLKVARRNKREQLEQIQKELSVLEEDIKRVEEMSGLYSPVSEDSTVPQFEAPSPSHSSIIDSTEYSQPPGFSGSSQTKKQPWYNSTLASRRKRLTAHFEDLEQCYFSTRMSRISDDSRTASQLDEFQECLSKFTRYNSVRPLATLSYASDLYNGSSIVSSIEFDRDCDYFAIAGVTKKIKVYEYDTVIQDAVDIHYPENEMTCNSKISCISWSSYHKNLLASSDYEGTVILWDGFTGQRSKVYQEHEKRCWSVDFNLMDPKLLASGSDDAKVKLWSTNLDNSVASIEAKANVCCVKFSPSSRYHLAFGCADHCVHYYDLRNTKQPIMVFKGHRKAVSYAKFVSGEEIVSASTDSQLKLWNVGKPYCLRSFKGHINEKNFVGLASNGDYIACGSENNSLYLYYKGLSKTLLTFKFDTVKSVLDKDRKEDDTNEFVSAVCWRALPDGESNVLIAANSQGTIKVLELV
Procedure: COP1 is capable of auto ubiquitinating its own self and getting degraded via the proteasomal pathway. To probe into this, HepG2 cells were co-transfected with HA tagged Ubiquitin and myc-flag tagged COP1. The transfected cells were treated with 5 μM of compounds 9, 10, 107 and 238 for 24 hours. MG-132, a proteasomal inhibitor, was added 4 hours before harvesting the cells. Immune complexes were pulled down with anti-myc antibody and immunoblot was done using anti-HA antibody. […] Thus, the compounds of the present disclosure could be potent therapeutic targets by being able to block the proteasomal degradation of ATGL which would then be able to carry out its lipolytic action and reverse the symptoms of steatosis.
For checking the autoubiquitination status of COP1, HepG2 cells were cotransfected with 2 μg each of Myc-DDK-COP1 and HA-Ub plasmids using Lipofectamine 2000 reagent (Invitrogen) in OptiMEM media (HiMedia). The rest of the procedure is similar to that done for Myc-ATGL.

ATGL [2] = assay: Immunoprecipitation assay of ATGL ubiquitination in myc-ATGL HepG2 cells; conditions: 5 μM, 24 hours, MG-132, poly ubiquitin smear
Procedure: To this end, an immunoprecipitation assay was performed wherein HepG2 cells overexpressing myc-ATGL were transfected with HA-Ubiquitin and treated with 5 μM of the compounds 9, 10, 107, 215, 219 and 238. MG-132, a proteasomal inhibitor, was added 4 hours before harvesting the cells. Immune complexes were pulled down with anti-myc antibody and immunoblot was done using anti-HA antibody. The resultant smears on the blot reflect the ubiquitination status of ATGL.
For checking the change in the ubiquitination status of ATGL on compound treatment, Myc-ATGL expressing HepG2 cells (ATGL overexpressing cell line) was transfected with 2 μg of a plasmid harboring the HA tagged ubiquitin gene using Lipofectamine 2000 reagent (Invitrogen) in OptiMEM media (HiMedia). Fresh DMEM complete media was added after 8-10 hours of transfection. After roughly 24 hours of transfection, 5 μM of the compounds 9, 10 and 107 was added and cells were harvested post 24 hours of treatment. 4 hours prior to cell harvesting, 10 μM of proteasomal inhibitor MG132 (Calbiochem, Merck Millipore) was added to the cells. Proteins were isolated from the cells and protein concentration was estimated as described previously. 30 μl of PureProteome Protein A/G Mix Magnetic Beads (Merck Millipore) was taken in a 1.5 ml microcentrifuge tube, placed in a Magna Rack (Merck Millipore) and allowed to adhere to the side of the tube. 200 μg of protein was used for immunoprecipitation reaction in a reaction volume of 1 ml. 2 μl of anti-Myc primary antibody (Cell Signaling Technology) was added and the tube was incubated overnight at 4° C. in a rotary shaker. The next day, the tube was placed back in the Magna Rack and the beads were allowed to attach to the tube. To remove non-specific and unattached reactants, 1×PBS and 0.1% Triton-X was used for washing. 2× loading dye and Lysis Buffer was added and heated at 95° C. for 10 minutes to allow the immune complex to dislodge from the magnetic beads. Western Blot was performed subsequently as described before with anti-HA primary antibody for immunoblotting (Cell Signaling Technology). The activity trends of the synthesized compounds are disclosed in Table-5.

ATGL [3] = assay: Western blot of ATGL level in HepG2 cells; set-up: key to Increase in ATGL level: + = slight or in insignificant; ++ = Moderate; +++ and ++++ = active; +++ and ++++ = active; +++++ = very active; conditions: HepG2 cells, western blot, score
Method in brief: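 HepG2 cells were treated with compound 24 h (10 μM screen; 50 nM–5 μM dose series) and lysed. 30 μg protein was western blotted for ATGL, with actin as loading reference. ATGL increase was expressed as percent of the 1.6-fold siCOP1 maximum and plotted against log concentration for EC50.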

HepG2 cells = assay: Confocal microscopy: lipid droplets in oleate induced HepG2 cells; set-up: key to Reduction in Lipid Droplets: + = slight or in insignificant; ++ = Moderate; +++ and ++++ = active; +++ and ++++ = active; +++++ = very active
Method in brief: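 HepG2 cells were loaded with 250 μM oleate and given compound in DMSO (10 μM screen; 10 nM–5 μM dose series) for 24 h; BSA as negative control. Lipid droplets stained with BODIPY/Hoechst, imaged confocally; mean droplets per cell counted over ~20 cells versus oleate-only cells.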

## COCCn1cnc2ccc(NC(=O)Nc3ccc(C(C)=O)cc3)cc2c1=O [Compound 10, 1-(4-acetylphenyl)-3-(3-(2-methoxyethyl)-4-oxo-3,4-dihydroquinazolin-6-yl)urea]
ATGL [1]
  Restoration of ATGL level upon COP1 overexpression: could restore the reduced ATGL level; also recorded: could restore ATGL to its normal level
COP1
  COP1 autoubiquitination in HepG2 cells: markedly reduce COP1's auto ubiquitination property
ATGL [2]
  ATGL ubiquitination in HepG2 cells: reduction, however, could not be seen
ATGL [3]
  Increase in ATGL level: ++++
HepG2 cells; HepG2 cells, 250 μM oleate induction
  Number of lipid droplets: decrease in the number of lipid droplets
HepG2 cells; oleate induced HepG2 cells, score
  Reduction in Lipid Droplets: ++++
